Legend:
[1] = biological target: T1, Human immunodeficiency virus type 1 protease (Human immunodeficiency virus 1, UniProt Q72874); assay: Inhibitory activity was determined against HIV-1 protease.
[2] = biological target: Human immunodeficiency virus type 1 protease (Human immunodeficiency virus 1) (UniProt Q72874); assay: Concentration that inhibits cellular growth of MT-4 cells acutely infected with HIV-1 RFstrain by 50%; type: functional, cell-based; settings: MT4
[3] = Cytotoxic activity was determined against HIV-1 infected MT-4 cells.; type: functional, cell-based; settings: MT4
C8166 [4] = assay: Antiviral activity against HIV-2red in C8166 cell line; type: functional; settings: Homo sapiens, read-out: ED50 (the source's name)
C8166 [5] = assay: Antiviral activity against SIV-mac251 in C8166 cell line; type: functional; settings: Homo sapiens, read-out: ED50 (the source's name)
C8166 [6] = assay: Cytotoxic activity against HIV-1 RF in […] cell line; type: functional; settings: Homo sapiens, read-out: CD50 (the source's name)
C8166 [7] = assay: Antiviral activity against HIV-1 RF in […] cell line; type: functional; settings: Homo sapiens, read-out: ED50 (the source's name)
CCRF-CEM = assay: Antiviral activity against HIV-1 HIB in CEM cell line; type: functional; settings: Homo sapiens, read-out: ED50 (the source's name)
H9 [8] = assay: Antiviral activity against HIV-1HIB in H9 cell line; type: functional; settings: Homo sapiens, read-out: ED50 (the source's name)
H9 [9] = assay: Antiviral activity against HIV-1MN in H9 cell line; type: functional; settings: Homo sapiens, read-out: ED50 (the source's name)
H938 cell line = assay: Antiviral activity against HIV-1CCl protease in H938 cell line; type: functional; settings: Homo sapiens, read-out: ED50 (the source's name)
[10] = biological target: T1, Human immunodeficiency virus type 1 protease; assay: Inhibitory activity against HIV-1 protease
JM1 [11] = assay: Antiviral activity against HIV-1 QB8F in JM cell line; type: functional; settings: Homo sapiens, read-out: ED50 (the source's name)
MT4 [12] = assay: Antiviral activity against HIV-1 RF in MT-4 cell line; type: functional; settings: Homo sapiens, read-out: ED50 (the source's name)
MT4 [13] = assay: Cytotoxic activity against HIV-1 in MT-4 cell line; type: functional; settings: Homo sapiens, read-out: CD50 (the source's name)
[14] = tested on: Human immunodeficiency virus 1; assay: Antiviral activity against HIV-1 108/F in PBMC 3 cell line; type: functional; settings: Human immunodeficiency virus 1, PBMC; read-out: ED50 (the source's name)
[15] = tested on: Human immunodeficiency virus 1; assay: Antiviral activity against HIV-1CC in PBMC cell line; Out of 7 days; type: functional; settings: Human immunodeficiency virus 1, PBMC, 168 h; read-out: ED50 (the source's name)
[16] = tested on: Human immunodeficiency virus 1; assay: Antiviral activity against HIV-1CCl in PBMC cell line; Out of 21 days; type: functional; settings: Human immunodeficiency virus 1, PBMC, 504 h; read-out: ED50 (the source's name)
[17] = tested on: Human immunodeficiency virus 1; assay: Antiviral activity against HIV-1CCL in PBMC 2 cell line; Out of 14 days; type: functional; settings: Human immunodeficiency virus 1, PBMC, 336 h; read-out: ED50 (the source's name)
H9 [18] = assay: Antiviral activity against HIV-1U455 in H9 cell line; type: functional; settings: Homo sapiens, read-out: ED50 (the source's name)
JM1 [19] = assay: Cytotoxic activity against HIV-1QB8F in JM cell line; type: functional; settings: Homo sapiens, read-out: CD50 (the source's name)

| SMILES | IC50 [1] [nM] | ED50 [2] [nM] | CD50 [3] [µM] | other results |
| --- | --- | --- | --- | --- |
| CC(C)[C@H](COCc1ccccc1)NC(=O)C(F)(F)[C@@H](O)C(Cc1ccc(OCc2ccccc2)cc1)NC(=O)[C@@H](NC(=O)OCc1ccccc1)C(C)C (stereo not given in full) | 6.6 | > 100000 | > 100 |  |
| CC(C)CNC(=O)C(F)(F)C(=O)C(Cc1ccc(OCc2ccccc2)cc1)NC(=O)[C@@H](NC(=O)OCc1ccccc1)C(C)C (stereo not given in full) | 5 | > 44000 | 44 |  |
| CC(C)[C@H](NC(=O)OCc1ccccc1)C(=O)NC(Cc1ccc(OCc2ccccc2)cc1)C(=O)C(F)(F)C(=O)N[C@H](COCc1ccccc1)C(C)C (stereo not given in full) | 40 | 350 | 35 |  |
| Cc1cn([C@H]2C[C@H](N=[N+]=[N-])[C@@H](CO)O2)c(=O)[nH]c1=O |  | 60 | > 10 |  |
| CC(C)C(C=O)NC(=O)C(F)(F)C(=O)C(Cc1ccc(OCc2ccccc2)cc1)NC(=O)[C@@H](NC(=O)OCc1ccccc1)C(C)C (stereo not given in full) | 4 | 18 | 3.2 |  |
| CC(C)[C@H](CCc1ccccc1)NC(=O)C(F)(F)C(=O)C(Cc1ccc(OCc2ccccc2)cc1)NC(=O)[C@@H](NC(=O)OCc1ccccc1)C(C)C (stereo not given in full) | 13 | 240 | 35 |  |
| CO[C@H](NC(=O)C(F)(F)C(=O)C(Cc1ccc(OCc2ccccc2)cc1)NC(=O)[C@@H](NC(=O)OCc1ccccc1)C(C)C)C(C)C (stereo not given in full) | < 10 | < 10 | 8 |  |
| CC(C)[C@@H](COCc1ccccc1)NC(=O)C(F)(F)C(=O)C(Cc1ccc(OCc2ccccc2)cc1)NC(=O)[C@H](NC(=O)OCc1ccccc1)C(C)C (stereo not given in full) | 2000 |  |  |  |
| CC(C)[C@H](NC(=O)OCc1ccccc1)C(=O)NC(Cc1ccc(OCc2ccccc2)cc1)C(=O)C(F)(F)C(=O)N[C@@H](C(=O)O)C(C)C (stereo not given in full) | 4 | 50000 | > 100 |  |
| CC(C)C[C@H](COCc1ccccc1)NC(=O)C(F)(F)C(=O)C(Cc1ccc(OCc2ccccc2)cc1)NC(=O)[C@@H](NC(=O)OCc1ccccc1)C(C)C (stereo not given in full) | 1.8 | 200 | 15 |  |
| CC(C)(C)NC(=O)[C@@H]1C[C@@H]2CCCC[C@@H]2CN1C[C@@H](O)[C@H](Cc1ccccc1)NC(=O)[C@H](CC(N)=O)NC(=O)c1ccc2ccccc2n1 |  | 6 | > 10 |  |
| CC(C)[C@H](NC(=O)OCc1ccccc1)C(=O)NC(Cc1ccc(OCc2ccccc2)cc1)C(=O)C(F)(F)C(=O)N[C@@H](C(=O)OC(C)(C)C)C(C)C (stereo not given in full) | 6 | 240 | 6 |  |
| CC(C)NC(=O)C(F)(F)C(=O)C(Cc1ccc(OCc2ccccc2)cc1)NC(=O)[C@@H](NC(=O)OCc1ccccc1)C(C)C (stereo not given in full) | 5 | 320 | 6 |  |
| CC(C)[C@H](COCc1ccccc1)NC(=O)C(F)(F)[C@H](O)C(Cc1ccc(OCc2ccccc2)cc1)NC(=O)[C@@H](NC(=O)OCc1ccccc1)C(C)C (stereo not given in full) | 5 | > 100000 | > 100 |  |
| CC(C)[C@H](COCc1ccccc1)NC(=O)C(F)(F)C(=O)C(Cc1ccc(OCc2ccccc2)cc1)NC(=O)[C@@H](NC(=O)OCc1ccccc1)C(C)C (stereo not given in full) |  | 27 | 100 | EC50 (C8166 [4]): 33 nM; EC50 (C8166 [5]): 28 nM; CC50 (C8166 [6]): 25000 nM; EC50 (C8166 [7]): 9 nM; EC50 (CCRF-CEM): 30 nM; EC50 (H9 [8]): 9 nM; EC50 (H9 [9]): 12 nM; EC50 (H938 cell line): 49 nM; Ki [10]: 8 nM; EC50 (JM1 [11]): 16 nM; EC50 (MT4 [12]): 27 nM; CC50 (MT4 [13]): 25000 nM; EC50 [14]: 35 nM; EC50 [15]: 80 nM; EC50 [16]: 70 nM; EC50 [17]: 38 nM; EC50 (H9 [18]): 35 nM; CC50 (JM1 [19]): > 100000 nM |
| COCCOCCO[C@H](NC(=O)C(F)(F)C(=O)C(Cc1ccc(OCc2ccccc2)cc1)NC(=O)[C@@H](NC(=O)OCc1ccccc1)C(C)C)C(C)C (stereo not given in full) | < 15 | 45 | 2.8 |  |
| CC(C)[C@H](NC(=O)OCc1ccccc1)C(=O)NC(Cc1ccc(OCc2ccccc2)cc1)C(=O)C(F)(F)C(=O)N[C@@H](COCc1ccccc1)c1ccccc1 (stereo not given in full) | 1 | 90 | 23 |  |
| CC(C)[C@H](NC(=O)OCc1ccccc1)C(=O)NC(Cc1ccc(OCc2ccccc2)cc1)C(=O)C(F)(F)C(=O)NCc1ccccc1 (stereo not given in full) |  | 300 | > 100 |  |
| COCCOCO[C@H](NC(=O)C(F)(F)C(=O)C(Cc1ccc(OCc2ccccc2)cc1)NC(=O)[C@@H](NC(=O)OCc1ccccc1)C(C)C)C(C)C (stereo not given in full) | < 10 | 15 | 3.4 |  |
| CC(C)[C@H](COCc1ccccc1)NC(=O)C(F)(F)C(=O)C(Cc1ccc(OCc2ccccc2)cc1)NC(=O)[C@H](NC(=O)OCc1ccccc1)C(C)C (stereo not given in full) | 60 | > 95000 | 95 |  |
| COC(=O)[C@H](NC(=O)C(F)(F)C(=O)C(Cc1ccc(OCc2ccccc2)cc1)NC(=O)[C@@H](NC(=O)OCc1ccccc1)C(C)C)C(C)C (stereo not given in full) | < 10 | 22 | 2.6 |  |
